logP and chromatographic logP data for 33 molecules are collected here from patent publication US20210386069A1 (priority 2018, published 2021).

As a reminder, the logP is a log measure of how a compound divides between an organic and an aqueous phase. Read a high logP as higher lipophilicity. As usually defined, the chromatographic logP is lipophilicity estimated from chromatographic retention. Read a high chromatographic logP as higher lipophilicity.

One data set in a line: log P by HPLC on a reversed-phase column (C 18), EEC Directive 79/831 Annex V.A8. The class given is physicochemical. The settings on record: HPLC reversed-phase C 18, 40° C., 0.1% aqueous formic acid and acetonitrile, linear gradient 10% to 95% acetonitrile. On the procedure: In table 1, the log P values were determined in accordance with EEC Directive 79/831 Annex V.A8 by HPLC (High Performance Liquid Chromatography) on a reversed-phase column (C 18), using the method described below:
temperature: 40° C.; mobile phases: 0.1% aqueous formic acid and acetonitrile; linear gradient from 10% acetonitrile to 95% acetonitrile;
If more than one Log P value is available within the same method, all the values are given and separated by “;”.
Calibration was carried out using unbranched alkan-2-ones (comprising 3 to 16 carbon atoms) with known log P values (determination of the log P values by the retention times using linear interpolation between two successive alkanones). lambda-max-values were determined using UV-spectra from 200 nm to 400 nm and the peak values of the chromatographic signals.
In the case of `Cc1nc2c(F)c(F)ccc2cc1Nc1ccccc1-c1ccncc1Cl` [I.034], the logP is on record as 3.37.
For `Cc1nc2c(F)c(F)ccc2cc1Nc1ccccc1-c1cccc(Cl)n1` [I.035], the logP amounted to 4.97.
`Cc1nc2c(F)c(F)ccc2cc1Nc1ccccc1-c1ccnc(Cl)c1` [I.036] registered a lipophilicity (logP) of 3.56.
Same read-out and setting: the same measure for `Cc1nc2c(F)c(F)ccc2cc1Nc1ccccc1-c1ccc(Cl)nc1` [I.037]: 3.62; for `Cc1nc2c(F)c(F)ccc2cc1Nc1ccccc1-c1cccnc1Cl` [I.038]: 3.43.
`Cc1nc2c(F)c(F)ccc2cc1Nc1ccccc1-c1cnccc1Cl` [I.039] showed a logP of 3.22.
`Cc1nc2c(F)c(F)ccc2cc1Nc1ccccc1-c1cncc(Cl)c1` [I.040]: the logP is 3.54.
`Cc1nc2c(F)c(F)ccc2cc1Cc1cccc(F)c1-c1ccncc1F` [I.041] returned a logP of 3.40.
`Cc1nc2c(F)c(F)ccc2cc1Cc1cccc(F)c1-c1cccnc1F` [I.043] came in with a logP of 3.55.
For the molecule `Cc1nc2c(F)c(F)ccc2cc1Cc1cccc(F)c1-c1ccnc(F)c1` [I.044], the logP came out at 3.65.
In turn, `Cc1nc2c(F)c(F)ccc2cc1Nc1cccc(F)c1-c1ccc(F)nc1` [I.045] returned a logP of 3.46.
Still for that read-out and setting: the figure for `Cc1nc2c(F)c(F)ccc2cc1Nc1cccc(F)c1-c1ccnc(F)c1` [I.046] is 3.46.
Regarding `Cc1nc2c(F)c(F)ccc2cc1Nc1cccc(F)c1-c1cccnc1F` [I.047], the logP was determined as 3.35.
Turning to `Cc1nc2c(F)c(F)ccc2cc1Nc1c(F)cccc1-c1ccncc1F` [I.048], the logP is 3.04.
Consider `Cc1nc2c(F)c(F)ccc2cc1Nc1ccc(F)cc1-c1ccncc1F` [I.049], for which the lipophilicity (logP) came out at 3.24.
The molecule `Cc1nc2c(F)c(F)ccc2nc1Cc1cccc(F)c1-c1ccncc1F` [I.050] had a logP of 3.31.
The same measure, in the same setting: the figure for `Cc1nc2c(F)c(F)ccc2cc1Nc1cccc(F)c1-c1ccncc1F` [I.051] is 3.29; for `Cc1nc2c(F)c(F)ccc2cc1Nc1ccccc1-c1ccnc(F)c1F` [I.053] it is 3.69.
The molecule `Cc1nc2c(F)c(F)ccc2cc1Nc1ccccc1-c1cc(F)nc(F)c1` [I.054] showed a logP of 3.91.
The molecule `Cc1nc2c(F)c(F)ccc2cc1Nc1ccccc1-c1ccc(F)nc1F` [I.055] showed a logP of 3.81.
The same measure, in the same setting: the same measure for `Cc1nc2c(F)c(F)ccc2nc1Nc1cccc(F)c1-c1ccncc1F` [I.056]: 2.98; for `Cc1nc2c(F)c(F)ccc2cc1Nc1ccccc1-c1cnccc1C1CC1` [I.057]: 2.05; for `Cc1nc2c(F)c(F)ccc2cc1Nc1ccccc1-c1ccncc1C1CC1` [I.058]: 2.12.
Still for that read-out and setting: the figure for `Cc1nc2c(F)c(F)ccc2cc1Nc1ccccc1-c1cccnc1C1CC1` [I.059] is 2.80; for `CCCc1ncccc1-c1ccccc1Nc1cc2ccc(F)c(F)c2nc1C` [I.060] it is 2.21; for `CCCc1cnccc1-c1ccccc1Nc1cc2ccc(F)c(F)c2nc1C` [I.061] it is 2.31.
With `CCCc1ccncc1-c1ccccc1Nc1cc2ccc(F)c(F)c2nc1C` [I.062], the logP turned out to be 2.41.
As to `Cc1nc2c(F)c(F)ccc2cc1Nc1cccc(F)c1-c1ccncc1C#N` [I.063], the logP came to 1.46.
In the case of `Cc1nc2c(F)c(F)ccc2cc1Nc1cccc(F)c1-c1cncc(C#N)c1` [I.064], the logP turned out to be 3.16.
`CCOc1ccc(-c2ccccc2Nc2cc3ccc(F)c(F)c3nc2C)cn1` [I.065] registered a logP of 4.02.
In turn, `CCOc1ncccc1-c1ccccc1Nc1cc2ccc(F)c(F)c2nc1C` [I.066] came in with a logP of 4.24.
With `CCc1cnccc1-c1c(F)cccc1Nc1cc2ccc(F)c(F)c2nc1C` [I.067], the logP came out at 2.41.

The same data set, now with this note: reversed-phase HPLC column (C 18); preparation examples; log P as defined in table 1 (HPLC, 0.1% aqueous formic acid/acetonitrile).
`Cc1nc2c(F)c(F)ccc2cc1Cc1cccc(F)c1-c1ccc(F)nc1` [I.042, 7,8-difluoro-3-[3-fluoro-2-(6-fluoropyridin-3-yl)benzyl]-2-methylquinoline] showed a chromatographic logP of 3.7.
